Legend:
[1] = target: T1, NDPK1 recombinant protein (AtNDPK1) (Arabidopsis thaliana, UniProt P39207); experiment: coupled pyruvate kinase-lactate dehydrogenase assay, NADH at […] nm; assay type: biochemical; settings: inhibitor; 500 uM cGMP; ATP and 4 mM TDP as substrates
T1 construct: gene NDK1; recombinant protein from commercial supplier (MyBioSource)
T1 sequence (P39207 1-149): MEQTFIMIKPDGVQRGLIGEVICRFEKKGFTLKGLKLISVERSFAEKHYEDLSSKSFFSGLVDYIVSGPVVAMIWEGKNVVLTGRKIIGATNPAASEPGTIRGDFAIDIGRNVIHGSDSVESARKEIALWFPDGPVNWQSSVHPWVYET

[2] = target: T1, NDPK1 recombinant protein (AtNDPK1); experiment: as above; assay type: biochemical; settings: phosphate acceptor, ATP as donor; 4 mM TDP

SMILES	specific activity, % of control at 500 uM [1] [%]	coupled pyruvate kinase-lactate dehydrogenase assay, NADH at 340 nm [2]
Nc1nc2c(ncn2[C@@H]2O[C@@H]3COP(=O)(O)O[C@H]3[C@H]2O)c(=O)[nH]1 [3',5'-cGMP]	51	
Cc1cn([C@H]2C[C@H](O)[C@@H](COP(=O)(O)OP(=O)(O)O)O2)c(=O)[nH]c1=O [TDP]		TDP was used as a NDPK1 substrate and phosphate group acceptor
